From ChEMBL document CHEMBL5500384, “New synergistic benzoquinone scaffolds as inhibitors of mycobacterial cytochrome bc1 complex to treat multi-drug resistant tuberculosis” (Eur J Med Chem, 2024)
≈ marks a conversion by molar mass, not a printed value.

What was measured:
[1] = Acute toxicity in Albino mouse assessed as change in ALP level at 50 to 2000 mg/kg, po measured after 14 days (reference value: 28 IU/L); assay type: organism-based; details: in vivo, 336 h, dose 50-2000 mg/kg, time 14 day
[2] = Pulmonary toxicity in Albino mouse assessed as change in bronchi structure at 50 to 2000 mg/kg, po measured after 14 days; assay type: organism-based; details: in vivo, 336 h, dose 50-2000 mg/kg, time 14 day
[3] = Pulmonary toxicity in Albino mouse assessed as appearance of goblet cells at 50 to 2000 mg/kg, po measured after 14 days; assay type: organism-based; details: in vivo, 336 h, dose 50-2000 mg/kg, time 14 day
[4] = Acute toxicity in Albino mouse assessed as change in lymphocytes at 50 to 2000 mg/kg, po measured after 14 days (reference value: 21%); assay type: organism-based; details: in vivo, 336 h, dose 50-2000 mg/kg, time 14 day
[5] = Cytotoxicity against african green monkey Vero cells by MTT assay; assay type: toxicity, cell-based; details: chlorocebus sabaeus
[6] = Acute toxicity in Albino mouse assessed as change in ESR at 50 to 2000 mg/kg, po measured after 14 days (reference value: 10 millimeter); assay type: organism-based; details: in vivo, 336 h, dose 50-2000 mg/kg, time 14 day
[7] = test system: Mycobacterium tuberculosis; experiment: Antitubercular activity against Mycobacterium tuberculosis H37Rv incubated for 5 days by microtiter plate method; assay type: functional; details: 120 h, time 5 day
[8] = Acute toxicity in Albino mouse assessed as change in monocytes at 50 to 2000 mg/kg, po measured after 14 days (reference value: 1%); assay type: organism-based; details: in vivo, 336 h, dose 50-2000 mg/kg, time 14 day
[9] = Renal toxicity in Albino mouse assessed as change in proximal convoluted tubules at 50 to 2000 mg/kg, po measured after 14 days; assay type: organism-based; details: in vivo, 336 h, dose 50-2000 mg/kg, time 14 day
[10] = Acute toxicity in Albino mouse assessed as mortality at 50 mg/kg, po after 14 days; assay type: organism-based; details: in vivo, 336 h, time 14 day
[11] = Cytotoxicity against african green monkey Vero cells assessed as cell viability at 25 ug/ml by MTT assay; assay type: toxicity, cell-based; details: chlorocebus sabaeus, at 25 µg/mL, read-out: Activity
[12] = Renal toxicity in Albino mouse assessed as change in Bowman's capsule at 50 to 2000 mg/kg, po measured after 14 days; assay type: organism-based; details: in vivo, 336 h, dose 50-2000 mg/kg, time 14 day
[13] = Renal toxicity in Albino mouse assessed as structural absorbability abnormalities at 50 to 2000 mg/kg, po measured after 14 days; assay type: organism-based; details: in vivo, 336 h, dose 50-2000 mg/kg, time 14 day
[14] = Acute toxicity in Albino mouse assessed as change in SGOT count at 50 to 2000 mg/kg, po measured after 14 days (reference value: 42 IU/L); assay type: organism-based; details: in vivo, 336 h, dose 50-2000 mg/kg, time 14 day
[15] = Cytotoxicity against african green monkey Vero cells assessed as cell viability at 6.25 ug/ml by MTT assay; assay type: toxicity, cell-based; details: chlorocebus sabaeus, at 6.25 µg/mL, read-out: Activity
[16] = Acute toxicity in Albino mouse assessed as change in LDH level at 50 to 2000 mg/kg, po measured after 14 days (reference value: 1052 IU/L); assay type: organism-based; details: in vivo, 336 h, dose 50-2000 mg/kg, time 14 day
[17] = Acute toxicity in Albino mouse assessed as mortality at 2000 mg/kg, po after 2 to 4 hrs; assay type: organism-based; details: in vivo, time 2-4 hrs
[18] = Renal toxicity in Albino mouse assessed as change in tubular capillaries at 50 to 2000 mg/kg, po measured after 14 days; assay type: organism-based; details: in vivo, 336 h, dose 50-2000 mg/kg, time 14 day
[19] = Acute toxicity in Albino mouse assessed as mortality at 300 mg/kg, po after 5 to 8 hrs; assay type: organism-based; details: in vivo, time 5-8 hrs
[20] = Hepatotoxicity in Albino mouse assessed as change in hepatic artery at 50 to 2000 mg/kg, po measured after 14 days; assay type: toxicity, organism-based, Liver; details: in vivo, 336 h, dose 50-2000 mg/kg, time 14 day
[21] = Acute toxicity in Albino mouse assessed as change in hemoglobin level at 50 to 2000 mg/kg, po measured after 14 days (reference value: 12.8 g/dl); assay type: organism-based; details: in vivo, 336 h, dose 50-2000 mg/kg, time 14 day
[22] = Renal toxicity in Albino mouse assessed as change in distal convoluted tubules at 50 to 2000 mg/kg, po measured after 14 days; assay type: organism-based; details: in vivo, 336 h, dose 50-2000 mg/kg, time 14 day
[23] = Acute toxicity in po dosed Albino mouse assessed as mortality after 14 days; assay type: organism-based; details: in vivo, time 14 day
[24] = Hepatotoxicity in Albino mouse assessed as change in hepatocytes at 50 to 2000 mg/kg, po measured after 14 days; assay type: toxicity, organism-based; details: in vivo, 336 h, dose 50-2000 mg/kg, time 14 day
[25] = Pulmonary toxicity in Albino mouse assessed as change in alveoli structure at 50 to 2000 mg/kg, po measured after 14 days; assay type: organism-based; details: in vivo, 336 h, dose 50-2000 mg/kg, time 14 day
[26] = Acute toxicity in Albino mouse assessed as change in eosinophils at 50 to 2000 mg/kg, po measured after 14 days (reference value: 3%); assay type: organism-based; details: in vivo, 336 h, dose 50-2000 mg/kg, time 14 day
[27] = Hepatotoxicity in Albino mouse assessed as change in bile duct at 50 to 2000 mg/kg, po measured after 14 days; assay type: toxicity, organism-based, Liver; details: in vivo, 336 h, dose 50-2000 mg/kg, time 14 day
[28] = Pulmonary toxicity in Albino mouse assessed as change in alveolar sacs at 50 to 2000 mg/kg, po measured after 14 days; assay type: organism-based; details: in vivo, 336 h, dose 50-2000 mg/kg, time 14 day
[29] = Acute toxicity in Albino mouse assessed as change in neutrophils at 50 to 2000 mg/kg, po measured after 14 days (reference value: 75%); assay type: organism-based; details: in vivo, 336 h, dose 50-2000 mg/kg, time 14 day
[30] = Cytotoxicity against african green monkey Vero cells assessed as cell viability at 100 ug/ml by MTT assay; assay type: toxicity, cell-based; details: chlorocebus sabaeus, at 100 µg/mL, read-out: Activity
[31] = Acute toxicity in Albino mouse assessed as change in SGPT count at 50 to 2000 mg/kg, po measured after 14 days (reference value: 52 IU/L); assay type: organism-based; details: in vivo, 336 h, dose 50-2000 mg/kg, time 14 day
[32] = Cytotoxicity against african green monkey Vero cells assessed as cell viability at 50 ug/ml by MTT assay; assay type: toxicity, cell-based; details: chlorocebus sabaeus, at 50 µg/mL, read-out: Activity
[33] = Pulmonary toxicity in Albino mouse assessed as appearance of cilia at 50 to 2000 mg/kg, po measured after 14 days; assay type: organism-based; details: in vivo, 336 h, dose 50-2000 mg/kg, time 14 day
[34] = Acute toxicity in Albino mouse assessed as change in serum creatine level at 50 to 2000 mg/kg, po measured after 14 days (reference value: 0.9 mg/dl); assay type: organism-based; details: in vivo, 336 h, dose 50-2000 mg/kg, time 14 day
[35] = Hepatotoxicity in Albino mouse assessed as change in portal tracks at 50 to 2000 mg/kg, po measured after 14 days; assay type: toxicity, organism-based; details: in vivo, 336 h, dose 50-2000 mg/kg, time 14 day
[36] = Pulmonary toxicity in Albino mouse assessed as change in squamous pneumocytes at 50 to 2000 mg/kg, po measured after 14 days; assay type: organism-based; details: in vivo, 336 h, dose 50-2000 mg/kg, time 14 day
[37] = Hepatotoxicity in Albino mouse assessed as change in portal vein at 50 to 2000 mg/kg, po measured after 14 days; assay type: toxicity, organism-based; details: in vivo, 336 h, dose 50-2000 mg/kg, time 14 day
[38] = Renal toxicity in Albino mouse assessed as change in renal tubules at 50 to 2000 mg/kg, po measured after 14 days; assay type: organism-based; details: in vivo, 336 h, dose 50-2000 mg/kg, time 14 day
[39] = Acute toxicity in Albino mouse assessed as change in platelet count at 50 to 2000 mg/kg, po measured after 14 days (reference value: 3.24 mm3); assay type: organism-based; parameters: unit not given here; details: in vivo, 336 h, dose 50-2000 mg/kg, time 14 day
[40] = Renal toxicity in Albino mouse assessed as change in renal corpuscles at 50 to 2000 mg/kg, po measured after 14 days; assay type: organism-based; details: in vivo, 336 h, dose 50-2000 mg/kg, time 14 day
[41] = Cytotoxicity against african green monkey Vero cells assessed as cell viability at 3.125 ug/ml by MTT assay; assay type: toxicity, cell-based; details: chlorocebus sabaeus, at 3.125 µg/mL, read-out: Activity
[42] = Acute toxicity in Albino mouse assessed as change in RBC count measured per million cells at 50 to 2000 mg/kg, po measured after 14 days (reference value: 9.15 microL); assay type: organism-based, Erythrocyte; details: in vivo, 336 h, dose 50-2000 mg/kg, time 14 day
[43] = Cytotoxicity against african green monkey Vero cells assessed as cell viability at 12.5 ug/ml by MTT assay; assay type: toxicity, cell-based; details: chlorocebus sabaeus, at 12.5 µg/mL, read-out: Activity
[44] = Renal toxicity in Albino mouse assessed as extravasation of RBC at 50 to 2000 mg/kg, po measured after 14 days; assay type: organism-based, Erythrocyte; details: in vivo, 336 h, dose 50-2000 mg/kg, time 14 day
[45] = Acute toxicity in Albino mouse assessed as change in serum urea level at 50 to 2000 mg/kg, po measured after 14 days (reference value: 46 mg/dl); assay type: organism-based; details: in vivo, 336 h, dose 50-2000 mg/kg, time 14 day
[46] = Acute toxicity in Albino mouse assessed as change in total leucocyte count at 50 to 2000 mg/kg, po measured after 14 days (reference value: 7400 mm3); assay type: organism-based; details: in vivo, 336 h, dose 50-2000 mg/kg, time 14 day
[47] = Hepatotoxicity in Albino mouse assessed as change in central vein at 50 to 2000 mg/kg, po measured after 14 days; assay type: toxicity, organism-based; details: in vivo, 336 h, dose 50-2000 mg/kg, time 14 day

## O=C1C(Cl)=C(N2C(=O)C(Cl)C2c2ccc(Cl)cc2)C(=O)c2ccccc21 (configuration not stated)
[1]
  Activity: 433.93 IU/L
[2]
  Activity: Non-Toxic
[3]
  Activity: Non-Toxic
[4]
  Activity: 44%
[5]
  Activity: Dose-Dependent Effect
[6]
  Activity: 14 millimeter/hr
[7]
  MIC: 7.69 µM (≈ 3.13 µg/mL)
[8]
  Activity: 1%
[9]
  Activity: Non-Toxic
[10]
  Activity: Non-Toxic
[11]
  viability at 25 ug/ml: 38%
[12]
  Activity: Non-Toxic
[13]
  Activity: Non-Toxic
[14]
  Activity: 136.54 IU/L
[15]
  viability at 6.25 ug/ml: 100%
[16]
  Activity: 134.22 IU/L
[17]
  Activity: Toxic
[18]
  Activity: Non-Toxic
[19]
  Activity: Toxic
[20]
  Activity: Non-Toxic
[21]
  Activity: 13.1 g/dL
[22]
  Activity: Non-Toxic
[23]
  LD50 at 336 h: 50 mg/kg
[24]
  Activity: Non-Toxic
[25]
  Activity: Non-Toxic
[26]
  Activity: 4%
[27]
  Activity: Non-Toxic
[28]
  Activity: Non-Toxic
[29]
  Activity: 70%
[30]
  viability at 100 ug/ml: 8.6%
[31]
  Activity: 42.09 IU/L
[32]
  viability at 50 ug/ml: 24.2%
[33]
  Activity: Non-Toxic
[34]
  Activity: 0.41 mg/dL
[35]
  Activity: Non-Toxic
[36]
  Activity: Non-Toxic
[37]
  Activity: Non-Toxic
[38]
  Activity: Non-Toxic
[39]
  Activity: 6.1
[40]
  Activity: Non-Toxic
[41]
  viability at 3.125 ug/ml: 100%
[42]
  Activity: 9.6
[43]
  viability at 12.5 ug/ml: 69.1%
[44]
  Activity: Non-Toxic
[45]
  Activity: 56.19 mg/dL
[46]
  Activity: 9400 mm3
[47]
  Activity: Non-Toxic
